Results: US20260041640A1 (INCYCLIX BIO, LLC, priority 2023, published 2026)
≈ marks a conversion by molar mass, not a printed value. Where two headings read alike, the source gives them in different places.

How the values were obtained:
[1] = Plasma protein binding, dog; format: in vitro ADME
From the text: Additionally, the whole blood-to-plasma ratio (KWB/P) in humans is 6.20, which also exceeds the other species tested (Table 7).

[2] = Aqueous solubility of INX-315; format: physicochemical
[3] = Organic solubility of INX-315 by visual inspection; format: physicochemical; design: key to Soluble at 4 wt % / Soluble at 2 wt % / Soluble at 1 wt % / Soluble at 0.5 wt % / Soluble at 0.4 wt % / Soluble at 0.25 wt %: ✓, soluble; X, insoluble
[4] = Non-Sink Dissolution Method (gastric to intestinal transfer); format: physicochemical
Procedure: The Gastric Media comprised 0.01 N HCl (pH 2.0) at a dose of 1500 μgA/mL. Timepoints tested were 10 min and 25 min following microcentrifugation of 100 μL aliquots diluted 5× in MeOH at 18,500 g. The Intestinal Media comprised 0.5 wt % SIF in Phosphate Buffer (pH 6.5) at a dose of 500 μgA/mL. Timepoints tested were 5 min, 30 min, 45 min, 70 min, 180 min, and 24 hr (post-transfer) following microcentrifugation of 100 μL aliquots diluted 5× in MeOH at 18,500 g. Timepoints tested were 5 min, 45 min, and 24 hr (post-transfer) following ultracentrifugation of 100 μL aliquots diluted 5× in MeOH at 470,000 g. The supernatants were assayed by HPLC.

[5] = tested on: recurrent advanced/metastatic cancer; experiment: First-in-human clinical study: preliminary antitumor activity; format: in vivo
Procedure: Cohort 1 enrollment of 6 subjects dosed at 100 mg oral QD was completed in October of 2023.

[6] = Toxicity and toxicokinetics studies, mouse; format: in vivo, mice
Procedure: (§1) Nominal dose values and sampling times were used for calculations. Any concentration reported as BLQ (LLOQ<1.0 ng/mL) was set equal to zero. Toxicokinetic analyses included Cmax, Tmax, AUC0-24, t1/2, RA Cmax, and RA AUC0-24.
(§2) Following this, human dose exposure was simulated using a combined whole blood and plasma compartment PK model using allometry and whole blood parameter estimates for the absorption rate constants and bioavailability per animal species. Absolute dose administration was used for modeling. V1, CL, V2, and Q parameters were extrapolated to human using allometric scaling. CL, Q by exponent equaled 0.818. V1, V2 by exponent equaled 1.03. Human body weight was set to 75 kg. Absorption rate constant (KA) was in reasonable ranges in mouse, rat, and dog, with values of 0.44, 0.53, and 0.18 (1/hr), respectively.

[7] = Toxicity and toxicokinetics studies, rat; format: in vivo, Sprague Dawley rats
Procedure: as §1, §2
All INX-315 tablets were taken at approximately the same time(s) each day.

CDK2/cyclin E = CDK2/cyclin E (Homo sapiens, UniProt P24941); details: intracellular; read-out: Nanobret IC50 CDK2/cyclin E; cited from earlier work
Ovcar-3 = details: BLU-222: based on Ovcar-3 cell cycle data (maximum G1 arrest); read-out: Cellular IC50; cited from earlier work
[8] = Cohort 1, 100 mg QD, 6 subjects

NS(=O)(=O)c1ccc(Nc2ncc3cc4n(c3n2)C2(CCCCC2)C(=O)NN4)cc1 [INX-315]
fraction unbound [1]: 0.04
solubility ([2]; 0.01 N HCl, simulated gastric fluid, 0.01N HCl, read-out: Dissolved Drug Solubility): 269 ± 92 µg/mL (≈ 629 µM)
solubility ([2]; 50 mM Na acetate, aqueous buffer, 50 mM Na Acetate, read-out: Total Drug Solubility): 19 ± 7 µg/mL (≈ 44.4 µM)
solubility ([2]; 0.224% SIF in PBS, fassif, 0.224% SIF in PBS, read-out: Dissolved Drug Solubility): 5.3 ± 0.4 µg/mL (≈ 12.4 µM)
solubility ([2]; 0.224% SIF in PBS, fassif, 0.224% SIF in PBS, read-out: Total Drug Solubility): 6.1 ± 0.4 µg/mL (≈ 14.3 µM)
solubility ([2]; 0.5% SIF in PBS, fassgf or other biorelevant, 0.5% SIF in PBS, read-out: Dissolved Drug Solubility): 11 ± 1 µg/mL (≈ 25.7 µM)
solubility ([2]; 0.5% SIF in PBS, fassgf or other biorelevant, 0.5% SIF in PBS, read-out: Total Drug Solubility): 15 ± 0.2 µg/mL (≈ 35.1 µM)
solubility ([2]; 0.5% Tween-80 in PBS, aqueous with cosolvent or surfactant or cyclodextrin, 0.5% Tween-80 in PBS, read-out: Dissolved Drug Solubility): 59 ± 8 µg/mL (≈ 138 µM)
solubility ([2]; 0.5% Tween-80 in PBS, aqueous with cosolvent or surfactant or cyclodextrin, 0.5% Tween-80 in PBS, read-out: Total Drug Solubility): 55 ± 1 µg/mL (≈ 129 µM)
solubility ([2]; 1% SIF in PBS, fassgf or other biorelevant, 1% SIF in PBS, read-out: Dissolved Drug Solubility): 16.3 ± 0.1 µg/mL (≈ 38.1 µM)
solubility ([2]; 1% SIF in PBS, fassgf or other biorelevant, 1% SIF in PBS, read-out: Total Drug Solubility): 16.4 ± 0.1 µg/mL (≈ 38.4 µM)
solubility ([2]; 1% SLS in water, aqueous with cosolvent or surfactant or cyclodextrin, 1% SLS in H2O, read-out: Dissolved Drug Solubility): 40 ± 1 µg/mL (≈ 93.6 µM)
solubility ([2]; 5% TPGS in PBS, aqueous with cosolvent or surfactant or cyclodextrin, 5% TPGS in PBS, read-out: Dissolved Drug Solubility): 313 ± 21 µg/mL (≈ 732 µM)
solubility ([2]; 5% TPGS in PBS, aqueous with cosolvent or surfactant or cyclodextrin, 5% TPGS in PBS, read-out: Total Drug Solubility): 305 ± 10 µg/mL (≈ 713 µM)
solubility ([2]; PBS/Blank FaSSIF, aqueous buffer, PBS/Blank FaSSIF, read-out: Total Drug Solubility): 17 ± 2 µg/mL (≈ 39.8 µM)
BCS classification ([2]; high permeability, low solubility): BCS-2
solubility ([2]; water, H2O, read-out: Total Drug Solubility): 61 ± 14 µg/mL (≈ 143 µM)
Soluble at 0.25 wt % ([3]; 1:9 DMSO:H2O): X
Soluble at 0.4 wt % ([3]; 1:9 DMSO:H2O): X
Soluble at 0.5 wt % ([3]; 1:9 DMSO:H2O): X
Soluble at 1 wt % ([3]; 1:9 DMSO:H2O): X
Soluble at 2 wt % ([3]; 1:9 DMSO:H2O): X
Soluble at 4 wt % ([3]; 1:9 DMSO:H2O): X
Soluble at 0.25 wt % ([3]; 3:1 DCM:MeOH): X
Soluble at 0.4 wt % ([3]; 3:1 DCM:MeOH): X
Soluble at 0.5 wt % ([3]; 3:1 DCM:MeOH): X
Soluble at 1 wt % ([3]; 3:1 DCM:MeOH): X
Soluble at 2 wt % ([3]; 3:1 DCM:MeOH): X
Soluble at 4 wt % ([3]; 3:1 DCM:MeOH): X
Soluble at 0.25 wt % ([3]; 4:1 ACN:H2O): X
Soluble at 0.4 wt % ([3]; 4:1 ACN:H2O): X
Soluble at 0.5 wt % ([3]; 4:1 ACN:H2O): X
Soluble at 1 wt % ([3]; 4:1 ACN:H2O): X
Soluble at 2 wt % ([3]; 4:1 ACN:H2O): X
Soluble at 4 wt % ([3]; 4:1 ACN:H2O): X
Soluble at 0.25 wt % ([3]; 4:1 THF:H2O): ✓
Soluble at 0.4 wt % ([3]; 4:1 THF:H2O): ✓
Soluble at 0.5 wt % ([3]; 4:1 THF:H2O): ✓
Soluble at 1 wt % ([3]; 4:1 THF:H2O): ✓
Soluble at 2 wt % ([3]; 4:1 THF:H2O): ✓
Soluble at 4 wt % ([3]; 4:1 THF:H2O): ✓
Soluble at 0.25 wt % ([3]; 5:1 DCM:H2O): X
Soluble at 0.4 wt % ([3]; 5:1 DCM:H2O): X
Soluble at 0.5 wt % ([3]; 5:1 DCM:H2O): X
Soluble at 1 wt % ([3]; 5:1 DCM:H2O): X
Soluble at 2 wt % ([3]; 5:1 DCM:H2O): X
Soluble at 4 wt % ([3]; 5:1 DCM:H2O): X
Soluble at 0.25 wt % ([3]; 8:2 Acetone:H2O): ✓
Soluble at 0.4 wt % ([3]; 8:2 Acetone:H2O): ✓
Soluble at 0.5 wt % ([3]; 8:2 Acetone:H2O): X
Soluble at 1 wt % ([3]; 8:2 Acetone:H2O): X
Soluble at 2 wt % ([3]; 8:2 Acetone:H2O): X
Soluble at 4 wt % ([3]; 8:2 Acetone:H2O): X
Organic solubility (soluble up to) ([3]; 9:1 ACN:H2O): up to 0.5 wt %
Soluble at 0.25 wt % ([3]; 9:1 ACN:H2O): ✓
Soluble at 0.4 wt % ([3]; 9:1 ACN:H2O): ✓
Soluble at 0.5 wt % ([3]; 9:1 ACN:H2O): ✓
Soluble at 1 wt % ([3]; 9:1 ACN:H2O): X
Soluble at 2 wt % ([3]; 9:1 ACN:H2O): X
Soluble at 4 wt % ([3]; 9:1 ACN:H2O): X
Soluble at 0.25 wt % ([3]; 9:1 Acetone:H2O): ✓
Soluble at 0.4 wt % ([3]; 9:1 Acetone:H2O): ✓
Soluble at 0.5 wt % ([3]; 9:1 Acetone:H2O): X
Soluble at 1 wt % ([3]; 9:1 Acetone:H2O): X
Soluble at 2 wt % ([3]; 9:1 Acetone:H2O): X
Soluble at 4 wt % ([3]; 9:1 Acetone:H2O): X
Organic solubility (soluble up to) ([3]; Acetone): up to 0.5 wt %
Soluble at 0.25 wt % ([3]; Acetone): ✓
Soluble at 0.4 wt % ([3]; Acetone): ✓
Soluble at 0.5 wt % ([3]; Acetone): ✓
Soluble at 1 wt % ([3]; Acetone): X
Soluble at 2 wt % ([3]; Acetone): X
Soluble at 4 wt % ([3]; Acetone): X
Soluble at 0.25 wt % ([3]; Methanol): ✓
Soluble at 0.4 wt % ([3]; Methanol): X
Soluble at 0.5 wt % ([3]; Methanol): X
Soluble at 1 wt % ([3]; Methanol): X
Soluble at 2 wt % ([3]; Methanol): X
Soluble at 4 wt % ([3]; Methanol): X
Non-Sink Dissolution, Micro @ 5 min ([4]; microcentrifuged (total drug), 5 min): 13
Non-Sink Dissolution, Micro @ 60 min ([4]; microcentrifuged (total drug), 60 min): 12
Non-Sink Dissolution, Micro @ 180 min ([4]; microcentrifuged (total drug), 180 min): 13
Non-Sink Dissolution, Ultra @ 5 min ([4]; ultracentrifuged (dissolved drug), 5 min): 13
Non-Sink Dissolution, Ultra @ 60 min ([4]; ultracentrifuged (dissolved drug), 60 min): 12
Non-Sink Dissolution, Ultra @ 180 min ([4]; ultracentrifuged (dissolved drug), 180 min): 12
partial response (PR) subjects [5, 8]: 1 subjects
progressive disease (PD) subjects [5, 8]: 2 subjects
stable disease (SD) subjects [5, 8]: 3 subjects
response ([5]; Subject 101-001 (ER+/HER2− breast cancer), 100 mg QD): confirmed PR
decrease in TL ([5]; Subject 201-001, end of Cycle 2, 100 mg QD): 10%
Absorption rate constant (KA) ([6]; model parameter estimate): 0.44 h⁻¹
bioavailability ([6]; whole blood, po, read-out: Bioavailability (F1)): 62%
bioavailability ([7]; both sexes, Sprague Dawley, rat, in vivo, po): 8%
Absorption rate constant (KA) ([7]; both, Sprague Dawley, rat, in vivo): 0.53 h⁻¹
human equivalent dose (HED) of the no observed adverse effect level (NOAEL) ([7]; rats): 9730 mg/day
safety margin of 100 mg QD starting dose vs HED of NOAEL ([7]; rats): 97 fold
IC50 (CDK2/cyclin E): 2 nM
IC50 (Ovcar-3): < 100 nM
